Data: US8846880B2, “Synthetic analogues of phosphatidyl-myo-inositol mannosides with an inhibitory activity of the inflammatory response” (Centre National de la Recherche Scientifique—CNRS—, priority 2008, dated 2014)

Tests used:
macrophages = assay: MTT cytotoxicity / cell viability assay on the same macrophages; assay type: cell-based, mouse
TNF-α = TNF-α secretion by LPS-stimulated bone-marrow-derived primary macrophages (ELISA); assay type: cell-based, mouse; conditions: LPS 100 ng/ml, 24 hours
Method: (§1) Murine bone marrow cells were obtained from femurs of wild-type mouse lines. The cells obtained were cultured (10^6/ml) for 7 days in DMEM medium (Dulbecco's modified Eagle's medium) supplemented with 20% of horse serum and 30% of L929 cell-conditioned medium. Three days after renewal of the medium, the cell preparation comprises a homogeneous population of macrophages.
(§2) The macrophages derived from the bone marrow of wild-type mice were cultured on 96-well culture plates in the proportion of 10^5 cells per well, and were then stimulated with LPS (100 ng/ml, Escherichia. coli, serotype O111:B4, Sigma) with or without PIM analog (1-10 μg/ml). All the freeze-dried PIM analog preparations used are solubilized in DMSO and added to the cultures at a noncytotoxic maximum final concentration of 1%.
(§3) After stimulation for 24 hours, the culture supernatants were collected and analyzed for their content of TNF-α, IL-6, IL-12p40 and KC cytokines by ELISA (Duoset, R&D) and for their nitrite content by means of the Griess reaction.
(§4) The macrophages derived from the bone marrow of wild-type mice were cultured on 96-well culture plates in a proportion of 10^5 cells per well, and then stimulated with LPS (100 ng/ml, Escherichia coli, serotype […], Sigma) with isoPIM1C16C18 (SFPIM219) (1-10 μg/ml) or a DMSO control. The preparation of freeze-dried SFPIM219 which is used is solubilized in DMSO and added to the cultures at a noncytotoxic maximum final concentration of 1%.
(§5) After stimulation for 24 hours, the culture supernatents were collected and analyzed for their content of cytokines TNF-α or IL-12p40 by ELISA (R&D Duoset, Minneapolis, Mo.). The results correspond to the mean±SD of n=2 mice per genotype.
(§6) The macrophages derived from the bone marrow of wild-type mice were cultured on 96-well culture plates in a proportion of 10^5 cells per well, and then stimulated with LPS (100 ng/ml, Escherichia coli, serotype O111:B4, Sigma) with PIM1 (SFPIM145), isoPIM1C16C18 (SFPIM219) or the compounds PIM-2-mimNCOCF3 (SFPIM324 t2) and PIM-2-mimNH(SFPIM324 t8) (titrated at 1, 3, 10, 30 μg/ml) or DMSO controls. The freeze-dried SFPIM145, SFPIM219, SFPIM324 t2 and SFPIM324 t8 preparations that were used are solubilized in DMSO and added to the cultures at a noncytotoxic maximum final concentration of 1%.

IL-12p40 = IL-12p40 secretion by LPS-stimulated primary macrophages (ELISA); assay type: cell-based, mouse
Method: as §1, §2, §3, §4, §5, §6

[1] = system: inflammatory cytokines and chemokines; assay: Additional experiments: inflammatory cytokines and chemokines in lungs exposed to endotoxins; assay type: in vivo
IL-6 = IL-6 expression by primary macrophages stimulated with LPS with or without IFNγ (ELISA); assay type: cell-based, mouse; conditions: LPS in the presence or absence of interferon-γ, 10 μg/ml (FIG. 5)
Method: as §1, §2, §3

KC [2] = assay: KC in bronchoalveolar lavage fluid after intranasal LPS (ELISA); assay type: in vivo; conditions: 24 hours after intranasal 1 μg LPS, coadministration 50 μg/mouse (FIG. 10)
Method: (§7) C57BL/6 mice received the vehicle alone (saline with 1.25% DMSO) or LPS (1 μg per mouse) from Escherichia coli (serotype […]; Sigma, St Louis, Mo., USA) in the absence or in the presence of PIM1 (SFPIM135) or of isoPIM1-2C16 (SFPIM91) (50 μg/mouse), applied by nasal instillation in a volume of 40 μl under light anesthesia with ketamine-xylazine.
(§8) The BAL fluid is collected by canulating the trachea and washing the lungs four times with 0.5 ml of cold PBS. After centrifugation at 400×g for 10 min at 4° C., the supernatant from the first lavage is stored at −70° C. for the cytokine analysis. Pools of cell pellets are counted with Trypan blue (Sigma) in a hemocytometer cell. For differential counting, the cells are stained with Diff-Quik Staining (Merz & Dade AG., Dudingen, Switzerland). Two times one hundred cells are counted.
(§9) The TNF and KC concentrations were evaluated by enzyme-linked immunosorbent assay (ELISA) in accordance with the instructions of the manufacturer (R&D Duoset, Minneapolis, Mo.).
Neutrophil recruitment depends on various factors, including chemokine KC, even though it is not critically dependent on TNF [23]. In FIG. 10, the treated mice are sacrificed 24 hours after the intranasal application of 1 μg of LPS and the bronchoalveolar fluid is analyzed in order to determine the chemokine KC content. […]

C57BL/6 mice [3] = assay: In vivo model of respiratory distress: Penh by noninvasive plethysmography after intranasal LPS; set-up: species or system mouse
Method: as §7
The resistance of the respiratory tracts was evaluated by noninvasive plethysmography over a period of 3 hours after the application of LPS. Awake mice were placed in plethysmography chambers (EMKA Technologies, Paris, France). The increase in respiratory pause (Penh), as measurement of respiratory discomfort, was recorded and analyzed using the Datanalyst Software (EMKA Technologies, Paris, France), and expressed as mean±SEM of Penh of n=2-3 individual mice per group.
TNF is essential for LPS-induced acute respiratory dysfunction, as has been shown in TNF-deficient mice. In order to determine the potential in vivo activity of PIM1 (SFPIM135) and isoPIM1-2C16 (SFPIM91), they were tested for their inhibitory activity in a murine model of acute pulmonary inflammation and respiratory distress induced by intranasal application of LPS (1 μg/mouse).
C57BL/6 mice received an intranasal application of 1 μg of LPS, and Penh was recorded for 200 minutes using noninvasive plethysmography. […]

TNF = TNF in bronchoalveolar lavage fluid after intranasal LPS (ELISA); assay type: in vivo; conditions: coadministration 50 μg/mouse (FIG. 11)
Method: as §7, §8, §9

C57BL/6 mice [4] = assay: Inflammatory cell recruitment in bronchoalveolar lavage after intranasal LPS; assay type: in vivo, mouse
Method: as §7, §8

KC [5] = assay: Chemokine KC production by LPS-stimulated macrophages (ELISA); assay type: cell-based, mouse; conditions: 10 μg/ml (FIG. 7)
Method: as §1, §2, §3

[6] = titrated at 1, 3, 10, 30 μg/ml (FIG. 15)

## CCCCCCCCCCCCCCCCCC(=O)OC[C@@H](COP(=O)(O)O[C@@H]1[C@@H](O[C@H]2O[C@H](CO)[C@@H](O)[C@H](O)[C@@H]2O)CNC[C@H]1O[C@H]1O[C@H](CO)[C@@H](O)[C@H](O)[C@@H]1O)OC(=O)CCCCCCCCCCCCCCC [PIM-2-mimNH]
macrophages; at the highest concentration (FIG. 16)
  cytotoxicity (MTT cell viability): a certain cytotoxicity
TNF-α; [6]
  TNF secretion: inhibit less strongly
IL-12p40; 10 μg/ml (FIG. 17)
  IL-12p40 secretion in response to LPS: partially inhibit

## CCCCCCCCCCCCCCCCCC(=O)OC[C@H](COP(=O)(O)O[C@@H]1[C@H](O)[C@@H](O)[C@H](O)[C@@H](O)[C@@H]1OC1O[C@H](CO)[C@@H](O)[C@H](O)[C@@H]1O)OC(=O)CCCCCCCCCCCCCCC (stereo partly drawn) [isoPIM1-C16C18, 1-O-α-D-mannopyranosyl-2-O—[((S)-2-O-hexadecanoyl-3-O-octadecanoylpropyl)phosphoryl]-D-myo-inositol]
macrophages; titrated at 1, 3 and 10 μg/ml (FIG. 13)
  cytotoxicity on macrophages (MTT): lack of cytotoxicity
TNF-α; 1-10 μg/ml (FIG. 12)
  TNF secretion: strongly inhibits
TNF-α; [6]
  TNF secretion: strongly inhibit
IL-12p40; 1 μg/ml (FIG. 14)
  IL-12p40 secretion in response to LPS: greatly inhibited
IL-12p40; 10 μg/ml (FIG. 17)
  IL-12p40 secretion in response to LPS: virtually abolished

## CCCCCCCCCCCCCCCCCC(=O)OC[C@@H](COP(=O)(O)OC1C(O[C@H]2O[C@H](CO)[C@@H](O)[C@H](O)[C@@H]2O)CN(C(=O)C(F)(F)F)CC1O[C@H]1O[C@H](CO)[C@@H](O)[C@H](O)[C@@H]1O)OC(=O)CCCCCCCCCCCCCCC (stereo partly shown) [PIM-2-mimNCOCF3]
TNF-α; [6]
  TNF secretion: strongly inhibit
IL-12p40; 10 μg/ml (FIG. 17)
  IL-12p40 secretion in response to LPS: virtually abolished

## 1-O-α-D-mannopyranosyl-2-O—[((S)-2,3-dipalmitoyloxy-propyl)phosphoryl]-D-myo-inositol [isoPIM1-2C16]
macrophages; titrated at 1, 3 and 10 μg/ml (FIG. 4)
  cytotoxicity (MTT): absence of cytotoxicity
[1]
  expression of several other inflammatory cytokines and chemokines in lungs exposed to endotoxins: decrease in expression
TNF-α; titrated at 1, 3 and 10 μg/ml (FIG. 3)
  TNF-α synthesis induced in LPS-stimulated macrophages: strongly inhibits
IL-6
  expression of IL-6 by the macrophages: also inhibited
IL-12p40; 1 μg/ml (FIG. 6)
  IL-12p40 secretion in response to LPS: inhibition
KC [2]
  secretion of KC in the bronchoalveolar space: greatly reduced
C57BL/6 mice [3]; 50 μg/mouse with LPS 1 μg/mouse, nasal instillation (FIG. 8)
  enhancement of Penh induced by LPS: even more pronounced
C57BL/6 mice [3]; summary of the in vivo experiments
  pulmonary inflammation and resistance of the respiratory tracts in response to local endotoxins: marked inhibition
TNF
  release of TNF in the bronchoalveolar space: more strongly
C57BL/6 mice [4]; 18 hours after application of LPS, 50 μg/mouse intranasal (FIG. 9)
  number of inflammatory cells detected in the BAL: partially reduced
C57BL/6 mice [4]; BAL, observed in 2 mice out of 3, 50 μg/mouse intranasal
  reduction in the number of neutrophils: ≤ 70%
KC [5]
  production of chemokine KC: more strongly
